Results reported in patent publication US10450297B2, “Sulfonyl amide derivatives for the treatment of abnormal cell growth” (Pfizer, Inc., priority 2007, dated 2019).

Molecular target: FAK kinase (catalytic construct FAK(410-689)) (Homo sapiens (Human), UniProt Q05397)
Test: FAKcd kinase ELISA (inhibition of poly-glu-tyr phosphorylation by FAK(410-689))
Format: biochemical
Conditions: 50 μM final ATP
Description: A. In-Vitro Activity of FAK:
The assay protocol has three parts:
3. […] 4. […] 5. […] 6. […] 7. […] 9. […] 10. […] 12. […] 13. […] 14. Aliquot the FAKcd protein and store frozen at −80° C. II. FAK Activation 1. […] At t120 (t=120 minutes), add 10 μl of 150 mM ATP. […] Add 180 μl aliquots of the desalted material to NiNTA spin column and incubate on spin column 4. […] FAKcd Kinase ELISA 1. Coat 96-well Nunc MaxiSorp plates with poly-glu-tyr (pGT) at […]: Prepare 10 μg/ml of pGT in PBS and aliquot 100 μl/well. Incubate the plates at 37° C. overnight, aspirate the supernatant, wash the plates 3 times with Wash Buffer, and flick to dry before storing at 4° C. 2. Prepare compound stock solutions of 2.5 mM in 100% DMSO. The stocks are subsequently diluted to 60× of the final concentration in 100% DMSO, and diluted 1:5 in Kinase Phosphorylation Buffer. 3. […] Add 80 μl to each well for a final ATP concentration of 50 μM. 4. […] 5. Dilute on ice, FAKcd protein to 1:1000 in Kinase Phosphorylation Buffer. Dispense 30 μl per well. 6. Note: Linearity and the appropriate dilution must be pre-determined for each batch of protein. The enzyme concentration selected should be such that quantitation of the assay signal will be approximately 0.8-1.0 at OD450, and in the linear range of the reaction rate. 7. Prepare both a No ATP control (noise) and a No Compound Control (Signal): 8. (Noise) One blank row of wells receives 10 μl of 1:5 diluted compounds in DMSO, 80 μl of Phosphorylation buffer (minus ATP), and 30 μl FAKcd solution. 9. […] 10. Incubate reaction at room temperature for 15 minutes with gentle shaking on a plate shaker. 11. Terminate the reaction by aspirating off the reaction mixture and washing 3 times with wash buffer. 12. Dilute phospho-tyrosine HRP-conjugated (pY20HRP) antibody to 0.250 μg/ml (1:1000 of Stock) in blocking buffer. Dispense 100 μl per well, and incubate with shaking for 30 minutes at 25°. 13. Aspirate the supernatant and wash the plate 3 times with wash buffer. 14. Add 100 μl per well of room temperature TMB solution to initiate color development. Color development is terminated after approximately 15-30 sec. by the addition of 100 μl of 0.09M H2SO4 per well. 15. The signal is quantitated by measurement of absorbance at 450 nm on the BioRad ricroplate reader or a microplate reader capable of reading at OD450. 16. Inhibition of tyrosine kinase activity would result in a reduced absorbance signal. […] The values are reported as IC50s, μM concentration. FAK Inducible cell-based ELISA: Final Protocol Materials: […]

Sequence of FAK kinase (catalytic construct FAK(410-689)) (Q05397 410-689): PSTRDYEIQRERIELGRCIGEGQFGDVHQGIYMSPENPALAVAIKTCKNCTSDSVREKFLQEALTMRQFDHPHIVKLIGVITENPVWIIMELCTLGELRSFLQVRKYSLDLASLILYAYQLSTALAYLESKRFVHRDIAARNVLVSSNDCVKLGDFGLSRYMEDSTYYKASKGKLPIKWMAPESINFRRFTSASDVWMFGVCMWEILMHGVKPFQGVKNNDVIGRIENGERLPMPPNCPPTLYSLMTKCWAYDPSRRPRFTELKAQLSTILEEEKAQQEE

SMILES	IC50 [nM]
COC(=O)c1ccc(Nc2ncc(C(F)(F)F)c(NCc3cccnc3N(C)S(C)(=O)=O)n2)cc1 [Compound 40, methyl 4-({4-[({2-[methyl(methylsulfonyl)amino]pyridin-3-yl}methyl)amino]-5-(trifluoromethyl)pyrimidin-2-yl}amino)benzoate]	0.59
CN(c1ncccc1CNc1nc(NC2CCNCC2)ncc1C(F)(F)F)S(C)(=O)=O [Compound 44, N-methyl-N-[3-({[2-(piperidin-4-ylamino)-5-(trifluoromethyl)pyrimidin-4-yl]amino}methyl)pyridin-2-yl]methanesulfonamide]	188
CC(=O)N1CCC(Nc2ncc(C(F)(F)F)c(NCc3cccnc3N(C)S(C)(=O)=O)n2)CC1 [Compound 45, N-{3-[({2-[(1-acetylpiperidin-4-yl)amino]-5-(trifluoromethyl)pyrimidin-4-yl}amino)methyl)pyridin-2-yl}-N-methylmethane-sulfonamide]	188
COc1cc(C(N)=O)ccc1Nc1ncc(C(F)(F)F)c(NCc2cccnc2N(C)S(C)(=O)=O)n1 [Compound 48, 3-methoxy-4-({4-[({2-[methyl(methylsuffonyl)amino]pyridin-3-yl}methyl)amino]-5-(trifluoromethyl)pyrimidin-2-yl}amino)benzamide]	0.59
COc1cc(C(N)=O)ccc1Nc1ncc(C(F)(F)F)c(NCc2ccc(C)nc2N(C)S(C)(=O)=O)n1 [Compound 49, 3-methoxy-4-({4-[({6-methyl-2-[methyl(methylsulfonyl)-amino]pyridin-3-yl}methyl)amino]-5-(trifluoromethyl)pyrirnidin-2-yl}amino)benzamide]	0.59
COCC(=O)N1CCC(Nc2ncc(C(F)(F)F)c(NCc3cccnc3N(C)S(C)(=O)=O)n2)CC1 [Compound 55, N-[3-({[2-{[1-(methoxyacetyl)piperidin-4-yl]amino}-5-(trifluoromethyl)pyrimidin-4-yl]amino}methyl)pyridin-2-yl]-N-methylmethane-sulfonamide]	188
CC(=O)NCC(=O)N1CCC(Nc2ncc(C(F)(F)F)c(NCc3cccnc3N(C)S(C)(=O)=O)n2)CC1 [Compound 56, N-{2-[4-({4-[({2-[methyl(methylsulfonyl)amino]pyridin-3-yl}methyl)amino]-5-(trifluoromethyl)pyrimidin-2-yl}amino)piperidin-1-yl]-2-oxoethyl}acetamide]	188
CN(c1ncccc1CNc1nc(NC2CCN(C(N)=O)CC2)ncc1C(F)(F)F)S(C)(=O)=O [Compound 57, 4-({4-[({2-[methyl(methylsulfonyl)amino]pyridin-3-yl}methyl)amino]-5-(trifluoromethyl)pyrimidin-2-yl}amino)piperidine-1-carboxamide]	188
CN(c1ncccc1CNc1nc(NC2CCN(C(=O)CC(F)(F)F)CC2)ncc1C(F)(F)F)S(C)(=O)=O [Compound 58, N-methyl-N-[3-({[5-(trifluoromethyl)-2-{[1-(3,3,3-trifluoropropanoyl)piperidin-4-yl]amino}pyrimidin-4-yl]amino}methyl)pyridin-2-yl]methanesulfonamide]	165
CN(c1ncccc1CNc1nc(Nc2ccc(C(N)=O)cn2)ncc1C(F)(F)F)S(C)(=O)=O [Compound 59, 6-({4-[({2-[methyl(methylsulfonyl)amino]pyridin-3-yl}methyl)amino]-5-(trifluoromethyl)pyrimidin-2-yl}amino)nicotinamide]	8.93
CCOC(=O)[C@H]1CC[C@@H](Nc2ncc(C(F)(F)F)c(NCc3cccnc3N(C)S(C)(=O)=O)n2)CC1 [Compound 60, ethyl cis-4-({4-(({2-[methyl(methylsulfonyl)amino]pyridin-3-yl}methyl)amino]-5-(trifluoromethyl)pyrimidin-2-yl}amino)cyclohexanecarboxylate]	188
CN(c1ncccc1CNc1nc(Nc2ccc(S(=O)(=O)Nc3ccccn3)cc2)ncc1C(F)(F)F)S(C)(=O)=O [Compound 61, 4-({4-[({2-[methyl(methylsulfonyl)amino]pyridin-3-yl}methyl)amino]-5-(trifluoromethyl)pyrimidin-2-yl}amino)-N-pyridin-2-ylbenzenesulfonamide]	1.02

Continued, values first:

IC50 [nM]	SMILES
188	CN(c1ncccc1CNc1nc(Nc2ccc(C(=O)O)cc2)ncc1C(F)(F)F)S(C)(=O)=O [Compound 42, 4-({4-[({2-[methyl(methylsulfonyl)amino]pyridin-3-yl}methyl)amino]-5-(trifluoromethyl)pyrimidin-2-yl}amino)benzoic acid]
0.6	CN(c1ncccc1CNc1nc(Nc2ccc(C(=O)O)cc2)ncc1C(F)(F)F)S(C)(=O)=O [Compound 43, 4-({4-[({2-[methyl(methylsulfonyl)amino)pyridin-3-yl}methyl)amino]-5-(trifluoromethyl)pyrimidin-2-yl}amino)benzoic acid]
1.02	CS(=O)(=O)c1cccc(CNc2nc(Nc3ccccc3)ncc2C(F)(F)F)c1 [Compound 46, N-4-(3-(methylsulfonyl)benzyl]-N-2-phenyl-5-(trifluoromethyl)pyrimidine-2,4-diamine]
0.59	Cc1ccc(CNc2nc(Nc3ccccc3)ncc2C(F)(F)F)c(N(C)S(C)(=O)=O)n1 [Compound 51, N-[3-({[2-anilino-5-(trifluoromethyl)pyrimidin-4-yl]amino}methyl)-6-methylpyridin-2-yl]-N-methylmethanesulfonamide]
1.95	CNC(=O)c1ccc(Nc2ncc(C(F)(F)F)c(NCc3cccc(S(C)(=O)=O)c3)n2)cc1 [Compound 52, N-methyl-4-{[4-{[3-(methylsulfonyl)benzyl]amino}-5-(trifluoromethyl)pyrimidin-2-yl]amino}benzamide]
10.3	Cc1ccc(CNc2nc(Nc3ccccc3)ncc2C(F)(F)F)c(NS(C)(=O)=O)c1 [Compound 62, N-[2-({[2-anilino-5-(trifluoromethyl)pyrimidin-4-yl]amino}methyl)-5-methylphenyl]methanesulfonamide]
0.6	Cc1ccc(N(C)S(C)(=O)=O)cc1CNc1nc(Nc2ccccc2)ncc1C(F)(F)F [Compound 63, N-[3-({[2-anilino-5-(trifluoromethyl)pyrimidin-4-yl]amino}methyl)-4-methylphenyl]-N-methylmethanesulfonamide]
0.6	Cc1cccc(CNc2nc(Nc3ccccc3)ncc2C(F)(F)F)c1N(C)S(C)(=O)=O [Compound 64, N-[2-({[2-anilino-5-(trifluoromethyl)pyrimidin-4-yl)amino}methyl)-6-methylphenyl]-N-methylmethanesulfonamide]
0.6	Cc1ccc(CNc2nc(Nc3ccccc3)ncc2C(F)(F)F)c(N(C)S(C)(=O)=O)c1 [Compound 65, N-[2-({[2-anilino-5-(trifluoromethyl)pyrimidin-4-yl]amino}methyl)-5-methylphenyl]-N-methylmethanesulfonamide]
0.6	Cc1ccc(N(C)S(C)(=O)=O)c(CNc2nc(Nc3ccccc3)ncc2C(F)(F)F)c1 [Compound 66, N-[2-({[2-anilino-5-(trifluoromethyl)pyrimidin-4-yl]amino}methyl)-4-methylphenyl]-N-methylmethanesulfonamide]
0.6	Cc1cccc(N(C)S(C)(=O)=O)c1CNc1nc(Nc2ccccc2)ncc1C(F)(F)F [Compound 67, N-[2-({[2-anilino-5-(trifluoromethyl)pyrimidin-4-yl]amino}methyl)-3-methylphenyl]-N-methylmethanesulfonamide]
0.6	Cc1cccc(NS(C)(=O)=O)c1CNc1nc(Nc2ccccc2)ncc1C(F)(F)F [Compound 69, N-[2-({[2-anilino-5-(trifluoromethyl)pyrimidin-4-yl]amino}methyl)-3-methylphenyl]methane-sulfonamide]
0.6	Cc1cnc(N(C)S(C)(=O)=O)c(CNc2nc(Nc3ccccc3)ncc2C(F)(F)F)c1 [Compound 70, N-[3-({[2-anilino-5-(trifluoromethyl)pyrimidin-4-yl]amino}methyl)-5-methylpyridin-2-yl]-N-methylmethanesulfonamide]
0.6	CN(c1nccnc1CNc1nc(Nc2ccc(C(N)=O)cc2)ncc1C(F)(F)F)S(C)(=O)=O [Compound 71, 4-({4-[({3-[methyl(methylsulfonyl)amino]pyrazin-2-yl}methyl)amino]-5-(trifluoromethyl)pyrimidin-2-yl}amino)benzamide]
